From the supplement of paper PMC10883282
± gives the standard deviation of the averaged measurements.

System: HS729
Test: relative viability vs DMSO control (72 h) (fraction); higher = more viable cells
Procedure, shortened: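 Sarcoma cell lines were grown in 384-well plates seeded toward 80–90% confluence and exposed 24 h later to serially diluted compound. After 72 h at 37 °C and 5% CO2, with 0.1% DMSO vehicle and a 5 µM positive control on the plates, ATPLite was read. Relative viability, given as percent growth averaged over up to triplicate wells, was rescaled so that 1 is full and 0 is none.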

| SMILES | relative viability (0.00017 µM) | relative viability (0.00051 µM) | relative viability (0.00152 µM) | relative viability (0.00457 µM) | relative viability (0.01372 µM) | relative viability (0.04115 µM) | relative viability (0.1235 µM) | relative viability (0.3704 µM) | relative viability (1.111 µM) | relative viability (3.333 µM) | relative viability (10 µM) |
| --- | --- | --- | --- | --- | --- | --- | --- | --- | --- | --- | --- |
| CC(C)N1CCN(Cc2cnc(-c3cc(-c4cccc5[nH]ccc45)cc4[nH]ncc34)o2)CC1 [Nemiralisib] | 1.06 ± 0.022 | 0.984 ± 0.026 | 0.98 ± 0.067 | 0.938 ± 0.038 | 0.978 ± 0.059 | 0.97 ± 0.067 | 0.892 ± 0.012 | 0.909 ± 0.063 | 0.787 ± 0.029 | 0.653 ± 0.037 | 0.52 ± 0.029 |
| Cc1ccc(NC(=O)c2ccc(CN3CCN(C)CC3)cc2)cc1Nc1nc(-c2cccnc2)cs1 [Masitinib] | 1.06 ± 0.064 | 1.06 ± 0.043 | 0.984 ± 0.066 | 1.03 ± 0.085 | 1.03 ± 0.037 | 1.04 ± 0.063 | 0.969 ± 0.038 | 0.913 ± 0.04 | 0.851 ± 0.054 | 0.576 ± 0.018 | 0.139 ± 0.022 |
| CCc1cc2c(cc1N1CCC(N3CCOCC3)CC1)C(C)(C)c1[nH]c3cc(C#N)ccc3c1C2=O [Alectinib] | 0.923 ± 0.021 | 0.962 ± 0.027 | 0.958 ± 0.035 | 0.938 ± 0.073 | 0.972 ± 0.047 | 0.987 ± 0.021 | 0.937 ± 0.029 | 0.941 ± 0.045 | 1 ± 0.058 | 0.933 ± 0.022 | 1.02 ± 0.024 |
| COc1cc2nccc(Oc3ccc(NC(=O)Nc4cc(C)on4)c(Cl)c3)c2cc1OC [Tivozanib] | 0.898 ± 0.058 | 0.883 ± 0.018 | 0.9572 ± 0.0089 | 0.923 ± 0.046 | 0.921 ± 0.052 | 0.882 ± 0.017 | 0.869 ± 0.043 | 0.891 ± 0.044 | 0.894 ± 0.05 | 0.817 ± 0.0084 | 0.722 ± 0.02 |
